Here are results for 3 compounds from patent US20250092369A1, “METHOD FOR IMPROVING TRANSCYTOSIS PROPERTIES OF HUMAN BLOOD-BRAIN BARRIER MODEL” (Wisconsin Alumni Research Foundation, priority 2023, published 2025).

The subject of assay [1] is hPSC-EPCs. The following applies: CHIR supplemented in hPSC-EPCs culture medium; cited from earlier work.
Assay [2] deals with gene-edited PB-TRE-N1ICD hPSC-EPCs. Kind of assay: RT-qPCR of BBB-related genes in gene-edited PB-TRE-N1ICD hPSC-EPCs + CHIR ± doxycycline. It counts as cell-based, human. On the procedure: Gene-edited hPSC-derived EPCs (D5) with high post-MACS purity validated by flow cytometry were cultured on collagen IV-coated plates at approximately 4×10^4 cells/cm^2 in hECSR medium supplemented with various antibiotics, with media changes every other day. […] […] On D15, cells were collected for RT-qPCR quantification of differential gene expression between doxycycline and DPBS-treated gene-edited hPSC-EPCs.
RNA extraction was performed using the Direct-zol RNA Miniprep Kit (Zymo Research). Cells were lysed with 300-600 μL TRIzol reagent (Invitrogen, Waltham, MA) depending on the estimated cell count per sample. Cell lysates were combined with an equal volume of 100% ethanol and transferred to Zymo-Spin IICR spin columns. Columns were incubated with Rnase-free DNase I (Qiagen) to eliminate residual gDNA. Columns were washed with RNA Wash Buffer and Direct-zol RNA Pre-Wash according to Zymo RNA Miniprep Kit protocols. RNA was eluted with RNase-free water and concentration was determined using a NanoDrop 2000 spectrophotometer (Thermo Scientific). 250-1000 ng of RNA was reverse transcribed for 1 h at 37° C. using the OmniScript RT Kit (Qiagen). 1 U/μL RNaseOUT (Life Technologies) was included in the reverse-transcription reactions. Reaction products were diluted to 10 ng/μL. 20 μL qPCR reactions were carried out with 10 ng cDNA and 500 nM each forward and reverse primers (Integrated DNA Technologies, Coralville, IA [Table 1]) using PowerUp SYBR Green Master Mix (Life Technologies) or 1×Taqman Gene Expression Assay probes (Thermo Scientific [Table 1]) using Taqman Fast Advanced Master Mix (Thermo Scientific). Reactions were run on an AriaMx Real-Time PCR System (Agilent Technologies, Santa Clara, CA) using the thermal cycling program corresponding to either IDT primers or Taqman probes. An annealing temperature of 60° C. was used for all reactions.
A general note: In qPCR the cycle at which signal appears reflects the starting amount.

In assay [3] the test system is gene-edited PB-TRE-N1ICD 10(+CR2) hPSC-EPCs. The assay is described as follows: Bulk RNA-sequencing of FACS-sorted gene-edited 10(+CR2) hPSC-EPC subpopulations. It counts as cell-based, human. How it is done:
Ten PBS or doxycycline-treated gene-edited PB-TRE-N1ICD hPSC-derived endothelial cell subpopulations obtained via FACS were centrifuged at 200×g for 5 min. Pellets were resuspended TRIzol reagent (Invitrogen) for extraction of total RNA. RNA concentrations were quantified using the Qubit 4 Fluorometer (Invitrogen) and Qubit RNA High Sensitivity Assay Kit (Invitrogen). Purified RNA samples (≥200 ng) were sent to Novogene Corporation (Sacramento, CA) for library preparation and mRNA sequencing, with approximately 40-60 million paired end reads obtained per sample. FASTQ files were uploaded to the Galaxy^43 web platform and processed to generate a raw counts matrix using the publicly available bioinformatics server at usegalaxy.org. We ran FastQC to ensure high Phred quality scores and low percentages (<5%) adapter content (Galaxy). Illumina Universal Adapter sequences were trimmed from raw sequencing reads using Cutadapt (Galaxy). Data were aligned to the hg38 genome model using RNA STAR and raw reads per gene were determined using featureCounts. Differential expression analysis was performed in R using DESeq2^44. Heatmaps containing TPM values were generated using the pheatmap package in R. Comparison of the transcriptomic profile of […] overexpressing EPCs±Dox subpopulations to transcriptomes of established cell and tissue types was performed with […]^45.

The test system is the same in assay [4]. Kind of assay: Transendothelial electrical resistance (TEER). The assay is classed as cell-based, human. The following applies: Dox-treated edited hPSC-EPCs at end of culture (D15), doxycycline D11-D15.
The test system of assay [5] is heterogeneous gene-edited hPSC-EPCs. The assay is described as follows: CD31 flow cytometry in heterogeneous gene-edited hPSC-EPCs, hygromycin/doxycycline timing. The assay is classed as cell-based, human. The following applies: 6 days of hygromycin reselection followed by 4 days of doxycycline treatment. How it is done:
To determine CD31 expression in edited hPSC-EPCs treated with doxycycline vs. DPBS (FIG. 15A,B), hPSC-ECs were isolated at day 13, 15, or 17, dissociated with Accutase as previously stated, quenched in DMEM supplemented with 10% FBS through a cell strainer, centrifuged, and resuspended in MACS buffer (100 μL/10^6 cells) supplemented with CD31-APC or APC isotype control antibodies at a 1:50 dilution. Cells were incubated at 4° C. for 20 min, protected from light. Cells were washed with 2 mL MACS buffer and centrifuged at 200×g for 5 min. Pellets were resuspended in 500 μL each of 4% PFA in DPBS and incubated 15 min at room temperature, protected from light. Cells were centrifuged at 200×g for 5 min and pellets were resuspended in 400 μL MACS buffer. Samples were run on an Attune NxT V6 flow cytometer with excitation at 633 nm. APC emission was detected with a 670/14 filter. Data were analyzed with Flow Jo software.
In general terms: In flow cytometry, cells or beads pass a laser one at a time.

The test system of assay [6] is gene-edited PB-TRE-N1ICD 10(+CR2) hPSC-EPCs. The assay is described as follows: FACS of CD144 (VE-cadherin) subpopulations in gene-edited 10(+CR2) hPSC-EPCs. The assay is classed as cell-based, human. As to conditions: doxycycline-treated population, D15. On the procedure: Gene-edited PB-TRE-N1ICD hPSC-EPCs were cultured in a 6-well plate with or without doxycycline as described above (n=3* replicates for doxycycline supplemented condition, n=4 replicates for PBS supplemented condition). On D15, cells were isolated with Accutase (incubated 15 mins at 37° C., 1 mL/well), triturated, and quenched through a 40 μm cell strainer into 4× the volume of DMEM (Life Technologies) supplemented with 10% FBS (R&D Systems). An additional well of gene-edited EPCs cultured with PBS was reserved as an isotype control. Unedited hPSCs maintained in E8 medium and unedited hPSC-EPCs cultured for 6 days in hECSR supplemented with 4 μM CHIR were used as an additional negative and positive control, respectively, for FACS. Cell count was quantified using a hemocytometer and cells were centrifuged at 200×g for 5 min. Cells were resuspended in MACS buffer at a concentration of 100 μL/10^6 cells. Cells suspensions were supplemented with CD144-APC or APC-conjugated isotype control antibodies (Table 2) at a 1:50 dilution for at 4° C. for 20 min, protected from light. Cells were washed with 2 mL MACS buffer and centrifuged at 200×g for 5 min. Pellets were resuspended in 400 μL each of MACS buffer supplemented with 1 μg/mL DAPI (Invitrogen) and incubated at 4° C., protected from light.
Cells were sorted using the BD FACSAria III Cell Sorter (BD Biosciences). Gates for high or low CD144-expressing cells were determined based on two negative controls (gene-edited PB-TRE-N1ICD hPSC-derived ECs stained with APC isotype control antibody or unedited hPSCs stained with CD144-APC antibody, both negative for CD144) and one positive control (unedited hPSC-EPCs cultured with CHIR, CD144 high). After establishing gates, live gene-edited PB-TRE-N1ICD hPSC-ECs treated with or without doxycycline were sorted into tubes containing 500 μL MACS buffer and stored at 4° C.

Assay [7] relates to gene-edited PB-TRE-N1ICD hPSC-EPCs. The assay is described as follows: Fluorescent albumin accumulation assay in gene-edited PB-TRE-N1ICD hPSC-EPCs. The assay is classed as cell-based, human. The following applies: PBS-treated 10(+CR2) cells, 30 min pretreatment: 3 mM MβCD, 20 µM CPZ or 2 μM rottlerin.
Procedure: Fixable, Alexa Fluor 647-conjugated bovine serum albumin (BSA) (Invitrogen) was used as a substrate to estimate total fluid-phase endocytosis. […] Similarly, D6 cultures of HUVECs treated with GFP or N1ICD LV were pre-treated with or without 3 mM MβCD for 30 min at 37° C. Cells were washed once with sterile DPBS and then incubated in hECSR (for hPSC-EPCs) supplemented with 5 μg/mL BSA or 1:1000 diluted DPBS, 1:100 diluted CD144-FITC or FITC isotype control antibody, and 4 μM Hoechst 33342 (Life Technologies) or EGM-2 media (for HUVECs) supplemented with 5 μg/mL BSA or 1:1000 diluted DPBS and 4 μM Hoechst 33342 at 4° C. or 37° C. for 2 h on a rotating platform at 30 rpm, protected from light. Cells were then washed 3 times with 4° C. sterile DPBS to stop the assay and wash away any extracellular BSA. Internalization of fluorescent BSA was visualized using an Eclipse Ti2-E epifluorescence microscope (Nikon, Tokyo, Japan) with a 20× objective.
Flow cytometry was used to quantify accumulated BSA fluorescence within cells. […] FITC emission was detected with a 530/30 filter and AlexaFluor 647 emission was detected with a 670/14 filter. Data were analyzed with Flow Jo software.
Setting [8] is: clone 10(+CR2), 6d H+4d D, 1 μg/mL doxycycline vs PBS, D15.
Setting [9] is: clone 10(+CR2), 6d P+4d D vs PBS control.

Structures are written as SMILES.

As for `Cc1c[nH]c(-c2cnc(NCCNc3ccc(C#N)cn3)nc2-c2ccc(Cl)cc2Cl)n1` [CHIR, CHIR99021], the “increase in normalized SLC2A1 expression (TPM)” value in assay [1] is recorded as approximately 750 fold.

On to `C[C@H]1c2cccc(O)c2C(=O)C2=C(O)[C@]3(O)C(=O)C(C(N)=O)=C(O)[C@@H](N(C)C)[C@@H]3[C@@H](O)[C@@H]21` [doxycycline, doxycycline hyclate], for which the “decrease in CDH5 expression” value in assay [2] (clone 3(+Y) hPSC-EPCs, highest doxycycline dose, D11-D15) is approximately 2 fold. For the same compound, the “downregulation of TJP1” value in assay [2] (clone 10(+CR2), 2d P+4d D+4P vs PBS control) is reported as approximately 2 fold. The “upregulation in MFSD2A” value in assay [2] (clone 10(+CR2), 6d H+4d D and 6d P+4d D vs PBS control (6d H+4d P), D15) is 60- to 100 fold. Besides, in assay [2] (setting [8]), the “decrease in expression of CDH5” value is reported as approximately 3 fold, the “increase in MFSD2A expression” value is recorded as approximately 50 fold, the “increase in SLC2A1 expression” value is recorded as more than 20 fold and the “increase in expression of ABCB1” value is approximately 2 fold. Moreover, in assay [2] (setting [8]), the “increase in expression of ABCC1” value is recorded as approximately 2 fold, the “increase in expression of ABCG2” value is listed as approximately 2 fold and the “upregulation in N1ICD expression” value is approximately 8 fold. Also, the “increase in CDH2” value in assay [2] (clone 10(+CR2), 6d P+4d D and 2d P+4d D+4P vs PBS control) was approximately 2 fold. Moreover, in assay [2] (setting [9]), the “increase in ABCC1” value turned out to be 7 fold, the “increase in ABCG2” value is recorded as 4 fold, the “increase in FN1” value is approximately 12 fold and the “upregulation of CLDN5” value was approximately 2 fold. Further, the “reduction in CDH5” value in assay [2] (clone 10(+CR2), 6d P+4d D vs PBS control, significant) is approximately 2 fold. In assay [2] (clone 10(+CR2), other doxycycline-treated conditions vs PBS control, non-significant), the “reduction in CDH5” value is recorded as approximately 1.7 fold. Besides, in assay [3] (Dox CD144 hi vs PBS CD144 hi), the “increase in NOTCH1 expression (TPM)” value is approximately 2 fold. Also, the “increase in NOTCH1 expression (TPM)” value in assay [3] (Dox CD144 lo vs PBS CD144 hi) was approximately 7 fold. In addition, the “average TEER” value in assay [4] is given as “less than 10 Ω·cm^2”. Moreover, in assay [5], the “percentage of CD31+ cells” value was approximately 90%. In addition, in assay [6], the “cells with high CD144 expression” value was approximately 25% and the “cells with low but not absent CD144 expression” value is reported as approximately 65%. Further, the “CD144+ cells” value in assay [6] (live cells) is recorded as approximately 90%.

With `CC(=O)c1c(O)c(C)c(O)c(Cc2c(O)c3c(c(C(=O)/C=C/c4ccccc4)c2O)OC(C)(C)C=C3)c1O` [rottlerin], in assay [7], the “fluorescent albumin accumulation after endocytosis inhibitor pretreatment” value was “but not with rottlerin”.
